The text below walks through data of ChEMBL document CHEMBL1201862, “PubChem BioAssay data set” (2004).

Among the test systems are NCI-H522; SW-620; NCI-H226; SNB-75; TK-10; CCRF-CEM; HT-29; OVCAR-8; RXF 393; UACC-257; BT-549; ACHN; OVCAR-4; PC-3; HCT-15; SNB-19; IGROV-1; OVCAR-3; K562; SF-539.
Common to all, as to experiment: NCI tumour cell line growth inhibition, 48 h

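Exposure lasted 48 hours, with cells grown in 96-well plates and compounds tested at five concentrations. GI50 = concentration required for 50% inhibition of growth.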 Active and inactive are the calls of the source. Cut-off read from the data, not from the text of the source: active = GI50 up to about 1.1 µM and inactive = higher.

As to `N#Cc1nc2ccccc2nc1N1CCN(c2ccc([N+](=O)[O-])cc2)CC1`, the GI50 with NCI-H522, with SW-620, with NCI-H226, in the assay with SNB-75, with TK-10 and in the assay with CCRF-CEM was > 100 µM (inactive) each time. The GI50 in the assay on HT-29, in the assay with OVCAR-8, with RXF 393, in the assay with UACC-257, in the assay with BT-549 and in the assay on ACHN was > 100 µM (inactive) throughout. For the same compound, the GI50 in the assay on OVCAR-4 is > 100 µM (inactive); in the assay on PC-3, > 100 µM (inactive); in the assay with HCT-15 it was more than 100 µM; in the assay on SNB-19 it was > 100 µM (inactive); in the assay with IGROV-1, > 100 µM (inactive).
For `CCc1n[nH]c(=O)n1/N=C(\C)c1ccc([N+](=O)[O-])cc1`, the GI50 is 94.2 µM (inactive) in the assay on SW-620; > 100 µM (inactive) in the assay with NCI-H226; > 100 µM (inactive) with TK-10; > 100 µM (inactive) in the assay with CCRF-CEM; 36.6 µM (inactive) with HT-29; > 100 µM (inactive) in the assay on OVCAR-8. Also, the GI50 in the assay with RXF 393 is 78.5 µM (inactive); in the assay with UACC-257, > 100 µM (inactive); in the assay on OVCAR-3, > 100 µM (inactive); in the assay with BT-549, > 100 µM (inactive); in the assay with OVCAR-4, > 100 µM (inactive); in the assay with K562 it was 97.7 µM (inactive). Also, the GI50 in the assay on PC-3 is > 100 µM (inactive); with HCT-15, more than 100 µM; in the assay with SNB-19, > 100 µM (inactive); in the assay with IGROV-1 it was 82.6 µM (inactive).
`COc1ccc(C2NC3=C(CCCC3)C3(C#N)C(=O)N=C(N)C23C#N)cc1` (configuration not stated): the GI50 is > 100 µM (inactive) in the assay on NCI-H522; > 100 µM (inactive) with SW-620; > 100 µM (inactive) in the assay on NCI-H226; > 100 µM (inactive) with TK-10; 23 µM (inactive) in the assay with CCRF-CEM; > 100 µM (inactive) with HT-29. Also, the GI50 in the assay on OVCAR-8, with RXF 393, in the assay with UACC-257, in the assay with BT-549, with ACHN and in the assay with OVCAR-4 was > 100 µM (inactive) throughout. The GI50 in the assay on K562 was > 100 µM (inactive); with PC-3, > 100 µM (inactive); with HCT-15, more than 100 µM; with SNB-19, > 100 µM (inactive); in the assay on IGROV-1 it was > 100 µM (inactive).
Consider `CC1(C)CC[C@]2(C(=O)O)CC[C@]3(C)C(=CC[C@@H]4[C@@]5(C)CC[C@H](OC6OC(CO)C(O)C(O)C6OC6OC(CO)C(O)C(O)C6O)C(C)(C)[C@@H]5CC[C@]43C)[C@@H]2C1` (some centres not stated), for which the GI50 was 20.6 µM (inactive) in the assay on NCI-H522; 22.5 µM (inactive) with SW-620; 17.6 µM (inactive) in the assay on NCI-H226; 21.6 µM (inactive) in the assay on SNB-75; 21.2 µM (inactive) with CCRF-CEM; 15.8 µM (inactive) in the assay on HT-29. The GI50 with OVCAR-8 is 19.4 µM (inactive); in the assay with RXF 393, 19.1 µM (inactive); with UACC-257 it was 20.1 µM (inactive); in the assay on OVCAR-3 it was 15.7 µM (inactive); in the assay with BT-549 it was 19.5 µM (inactive); in the assay on ACHN, 18.5 µM (inactive). The GI50 in the assay on OVCAR-4 is 16.8 µM (inactive); in the assay with K562, 19.8 µM (inactive); in the assay on PC-3, 17 µM (inactive); in the assay with HCT-15, 18 µM; with SNB-19, 18.3 µM (inactive); in the assay on IGROV-1 it was 18.9 µM (inactive).
For `[N-]=[N+]=CC(=O)C1CCCN1C(=O)c1ccccc1` (configuration not stated), the GI50 in the assay on SW-620 is > 10 µM (inactive); in the assay with NCI-H226 it was > 10 µM (inactive); in the assay with SNB-75, 0.585 µM (active); in the assay on TK-10, > 10 µM (inactive); with CCRF-CEM it was > 10 µM (inactive); in the assay on HT-29 it was > 10 µM (inactive). The GI50 with OVCAR-8, in the assay on SF-539, in the assay with RXF 393, in the assay with UACC-257, in the assay with OVCAR-3 and with BT-549 was > 10 µM (inactive) in each case. The GI50 in the assay with ACHN was > 10 µM (inactive); in the assay on OVCAR-4, > 10 µM (inactive); with K562 it was > 10 µM (inactive); in the assay with PC-3, > 10 µM (inactive); with HCT-15 it was more than 10 µM; in the assay on SNB-19 it was > 10 µM (inactive). The GI50 in the assay with IGROV-1 is > 10 µM (inactive).
As to `CCCCCC1CC=CC(=O)O1` (configuration not stated), the GI50 was 2.92 µM (inactive) in the assay on NCI-H522; 4.1 µM (inactive) in the assay with SW-620; 11.6 µM (inactive) in the assay with TK-10; 2.39 µM (inactive) in the assay on CCRF-CEM; 3.89 µM (inactive) in the assay on HT-29; 5.97 µM (inactive) in the assay with OVCAR-8. Besides, the GI50 is 1.32 µM (inactive) with SF-539; 4.49 µM (inactive) with RXF 393; 14.1 µM (inactive) in the assay with UACC-257; 10.5 µM (inactive) in the assay on OVCAR-3; 12.3 µM (inactive) in the assay with BT-549; 7.62 µM (inactive) in the assay on ACHN. For the same compound, the GI50 with OVCAR-4 was 1.18 µM (inactive); with K562, 5.4 µM (inactive); in the assay on PC-3 it was 3.78 µM (inactive); in the assay with HCT-15, 5.07 µM; with SNB-19, 10.5 µM (inactive); in the assay with IGROV-1, 2.94 µM (inactive).
As to `CNC1C(O)C(OC2C(N)CC(N)C(OC3OC(C(C)O)C(O)C(O)C3N)C2O)OCC1(C)O` (configuration not stated), the GI50 with NCI-H522, in the assay on SW-620, in the assay with NCI-H226, in the assay on SNB-75, in the assay with TK-10 and with CCRF-CEM was > 100 µM (inactive) each time. Also, the GI50 with HT-29, with OVCAR-8, with SF-539, in the assay on OVCAR-3, in the assay on BT-549 and with ACHN was > 100 µM (inactive) each time. Further, the GI50 was > 100 µM (inactive) with OVCAR-4; > 100 µM (inactive) in the assay on K562; > 100 µM (inactive) with PC-3; more than 100 µM with HCT-15; > 100 µM (inactive) with SNB-19; > 100 µM (inactive) with IGROV-1.
For the compound `CCOC(=O)/C=C/[C@@H](CC)O[Si](C(C)C)(C(C)C)C(C)C`, the GI50 with NCI-H522 was > 100 µM (inactive); in the assay on SW-620, > 100 µM (inactive); with NCI-H226, > 100 µM (inactive); in the assay with SNB-75 it was > 100 µM (inactive); with TK-10 it was > 100 µM (inactive); with CCRF-CEM, 42.2 µM (inactive). Further, the GI50 in the assay on HT-29 is > 100 µM (inactive); in the assay with OVCAR-8, > 100 µM (inactive); in the assay on SF-539, > 100 µM (inactive); in the assay with UACC-257, 67.3 µM (inactive); in the assay on OVCAR-3, > 100 µM (inactive); in the assay with BT-549, > 100 µM (inactive). Besides, the GI50 in the assay on ACHN is > 100 µM (inactive); in the assay on OVCAR-4, > 100 µM (inactive); in the assay on K562, > 100 µM (inactive); with PC-3, 61.7 µM (inactive); in the assay with HCT-15, more than 100 µM; in the assay with SNB-19, > 100 µM (inactive). In addition, the GI50 with IGROV-1 was > 100 µM (inactive).
For `CC/C=C\C/C=C\C/C=C\CCCCCCCC(=O)OC(COC(=O)CCCCCCCCCCCCCCCCC)COC1OC(CO)C(O)C(O)C1O` (configuration not stated), the GI50 in the assay with NCI-H522 was 9.53 µM (inactive); in the assay on SW-620 it was > 25 µM (inactive); in the assay with NCI-H226, > 25 µM (inactive); in the assay on SNB-75, > 25 µM (inactive); in the assay with TK-10, > 25 µM (inactive); in the assay on CCRF-CEM, > 25 µM (inactive). The GI50 in the assay with HT-29 was 22.8 µM (inactive); in the assay on OVCAR-8 it was 15.9 µM (inactive); in the assay on RXF 393, > 25 µM (inactive); in the assay with UACC-257 it was > 25 µM (inactive); in the assay on OVCAR-3, 7.74 µM (inactive); in the assay with BT-549, > 25 µM (inactive). Also, the GI50 in the assay on ACHN was > 25 µM (inactive); with OVCAR-4, > 25 µM (inactive); with K562, 18.6 µM (inactive); in the assay with PC-3 it was 22.8 µM (inactive); in the assay on HCT-15 it was more than 25 µM; in the assay with SNB-19, > 25 µM (inactive). Also, the GI50 with IGROV-1 was 12.3 µM (inactive).
Consider `COc1cccc(C2CC(C)(O)Oc3cc4c(cc32)OCO4)c1` (configuration not stated), for which the GI50 in the assay with NCI-H522 was 7.21 µM (inactive); with SW-620 it was 7.31 µM (inactive); in the assay with NCI-H226, 17.3 µM (inactive); with SNB-75 it was 18.6 µM (inactive); in the assay on TK-10, 21.1 µM (inactive); with CCRF-CEM, 47.8 µM (inactive). The GI50 is 7.26 µM (inactive) in the assay with HT-29; 29.6 µM (inactive) in the assay with OVCAR-8; 28 µM (inactive) in the assay on RXF 393; 37.6 µM (inactive) with UACC-257; 19.4 µM (inactive) with OVCAR-3; 16.1 µM (inactive) in the assay with BT-549. In addition, the GI50 in the assay on ACHN is 25.9 µM (inactive); with OVCAR-4, 24.2 µM (inactive); in the assay on K562, 19.5 µM (inactive); in the assay with PC-3 it was 25.1 µM (inactive); with HCT-15, 7.01 µM; in the assay with SNB-19, 32.6 µM (inactive). Besides, the GI50 in the assay on IGROV-1 was 24 µM (inactive).
On to `CC(C)(C)C1CCC2c3c([nH]c4ccccc34)C3C(=O)N(c4ccccc4Cl)C(=O)C3C2C1` (configuration not stated), for which the GI50 in the assay on SW-620 is 7.94 µM (inactive); with NCI-H226, > 10 µM (inactive); with TK-10, 19.4 µM (inactive); in the assay on CCRF-CEM it was 15.3 µM (inactive); in the assay with HT-29, 5.86 µM (inactive); in the assay on OVCAR-8, 16 µM (inactive). Further, the GI50 with SF-539 was > 10 µM (inactive); in the assay on RXF 393 it was 11.9 µM (inactive); in the assay with UACC-257 it was 31.6 µM (inactive); with OVCAR-3, 15.6 µM (inactive); in the assay with BT-549, 23.8 µM (inactive); with ACHN, 14.1 µM (inactive). Moreover, the GI50 in the assay on K562 is 9.79 µM (inactive); in the assay on PC-3 it was 5.31 µM (inactive); in the assay with HCT-15 it was 12.1 µM; in the assay with SNB-19 it was 35.8 µM (inactive); with IGROV-1, 25.9 µM (inactive).
